Data from patent US8927559B2, “Quinazolinone-type compounds as CRTH2 antagonists” (Merck Sharp & Dohme Corp., priority 2010, dated 2015).
Several values for one entry are separate records, joined by “and”; a condition that tells them apart may be missing. Identical values can stand only once.

Each compound was assayed against T1, CRTH2 receptor (hCRTH2) (Homo sapiens, UniProt Q9Y5Y4) (assay: Radioligand binding assay ([3H]PGD2 competition, membranes of HEK-hCRTH2 cell line)). Conditions: 3.0 nM [3H]PGD2, HEK-hCRTH2 membranes, 60 min, room temperature; read-out: Ki.
T1 construct: expressed in transfected cells; host or cells: HEK cells (HEK-hCRTH2 cell line), membranes
T1 sequence (Q9Y5Y4 1-395): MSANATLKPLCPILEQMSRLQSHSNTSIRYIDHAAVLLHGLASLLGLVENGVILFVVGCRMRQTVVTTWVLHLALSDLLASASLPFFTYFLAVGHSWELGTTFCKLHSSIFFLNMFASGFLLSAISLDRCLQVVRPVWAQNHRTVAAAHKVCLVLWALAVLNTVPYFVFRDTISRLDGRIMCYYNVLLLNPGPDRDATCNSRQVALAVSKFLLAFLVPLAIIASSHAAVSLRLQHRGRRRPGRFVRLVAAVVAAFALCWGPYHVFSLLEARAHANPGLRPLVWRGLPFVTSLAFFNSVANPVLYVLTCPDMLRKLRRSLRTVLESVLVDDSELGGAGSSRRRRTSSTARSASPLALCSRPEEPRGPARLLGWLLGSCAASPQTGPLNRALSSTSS
Outline: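 Membranes (8-20 μg protein) from HEK cells expressing human CRTH2 were incubated with [3H]PGD2 and competitor in 1% DMSO for 60 min at room temperature. Non-specific binding was defined with excess PGD2. Bound radioactivity was separated by filtration and counted by melt-on scintillation.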

Compound	Ki
C[C@]1(c2cc3ccccn3n2)CC(c2ccc3c(=O)n(-c4ccc(F)cc4)c(CCCCC(=O)O)nc3c2)=NO1 [Example 202]	10 to 50 nM
Cc1cccc2[nH]c([C@]3(C)CC(c4ccc5c(=O)n(-c6ccc(F)cc6)c(CCCCC(=O)O)nc5c4)=NO3)nc12 [Example 203]	≤ 10 nM
CC1(c2nc3cc(F)ccc3[nH]2)CC(c2ccc3c(=O)n(-c4ccc(Cl)cc4)c(CCCCC(=O)O)nc3c2)=NO1 (stereo not drawn) [Example 205]	≤ 10 nM
CC1(c2nc3cc(Cl)ccc3[nH]2)CC(c2ccc3c(=O)n(-c4ccc(Cl)cc4)c(CCCCC(=O)O)nc3c2)=NO1 (stereo not drawn) [Example 206]	≤ 10 nM
C[C@@]1(c2nc3cc(F)c(F)cc3[nH]2)CC(c2ccc3c(=O)n(-c4ccc(F)cc4)c(CCCCC(=O)O)nc3c2)=NO1 [Example 207]	10 to 50 nM and 17 nM
C[C@]1(c2nc3cc(F)c(F)cc3[nH]2)CC(c2ccc3c(=O)n(-c4ccc(F)cc4)c(CCCCC(=O)O)nc3c2)=NO1 [Example 208]	≤ 10 nM
C[C@@]1(c2nc3cc(Cl)c(F)cc3[nH]2)CC(c2ccc3c(=O)n(-c4ccc(F)cc4)c(CCCCC(=O)O)nc3c2)=NO1 [Example 209]	≤ 10 nM
C[C@]1(c2nc3cc(Cl)c(F)cc3[nH]2)CC(c2ccc3c(=O)n(-c4ccc(F)cc4)c(CCCCC(=O)O)nc3c2)=NO1 [Example 210]	10 to 50 nM
CC1(C(=O)N2CCc3ccccc32)CC(c2ccc3c(=O)n(-c4ccc(F)cc4)c(CCCCC(=O)O)nc3c2)=NO1 (stereo not drawn) [Example 211]	≤ 10 nM
CC1(C(=O)N2CCCCC2)CC(c2ccc3c(=O)n(-c4ccc(F)cc4)c(CCCCC(=O)O)nc3c2)=NO1 (stereo not drawn) [Example 212]	10 to 50 nM
C[C@@]1(c2nc3c(F)cc(F)cc3[nH]2)CC(c2ccc3c(=O)n(-c4ccc(F)cc4)c(CCCCC(=O)O)nc3c2)=NO1 [Example 213]	≤ 10 nM
C[C@@]1(C(=O)N[C@H]2c3ccccc3C[C@H]2O)CC(c2ccc3c(=O)n(-c4ccc(F)cc4)c(CCCCC(=O)O)nc3c2)=NO1 [Example 215]	≤ 10 nM
C[C@]1(C(=O)N[C@@H]2c3ccccc3C[C@@H]2O)CC(c2ccc3c(=O)n(-c4ccc(F)cc4)c(CCCCC(=O)O)nc3c2)=NO1 [Example 216]	10 to 50 nM
CC1(c2nc3cc(F)c(F)cc3[nH]2)CC(c2ccc3c(=O)n(-c4ccc(Cl)cc4)c(CCCCC(=O)O)nc3c2)=NO1 (stereo not drawn) [Example 219]	≤ 10 nM
C[C@@]1(c2nc3ccc(F)cc3[nH]2)CC(c2ccc3c(=O)n(-c4ccc(Cl)cc4)c(CCCCC(=O)O)nc3c2)=NO1 [Example 220]	≤ 10 nM
C[C@@]1(c2nc3ccc(Cl)cc3[nH]2)CC(c2ccc3c(=O)n(-c4ccc(Cl)cc4)c(CCCCC(=O)O)nc3c2)=NO1 [Example 222]	≤ 10 nM
C[C@@]1(c2nc3cc(F)c(F)cc3[nH]2)CC(c2ccc3c(=O)n(-c4ccc(Cl)cc4)c(CCCCC(=O)O)nc3c2)=NO1 [Example 224]	≤ 10 nM
C[C@]1(c2nc3cc(F)c(F)cc3[nH]2)CC(c2ccc3c(=O)n(-c4ccc(Cl)cc4)c(CCCCC(=O)O)nc3c2)=NO1 [Example 225]	10 to 50 nM
CC1(c2ncc3ccccn23)CC(c2ccc3c(=O)n(-c4ccc(F)cc4)c(CCCCC(=O)O)nc3c2)=NO1 (stereo not drawn) [Example 226]	10 to 50 nM
C[C@@]1(c2ncc3ccccn23)CC(c2ccc3c(=O)n(-c4ccc(F)cc4)c(CCCCC(=O)O)nc3c2)=NO1 [Example 227]	10 to 50 nM
CC1(C(=O)Nc2ccc(F)cc2O)CC(c2ccc3c(=O)n(-c4ccc(F)cc4)c(CCCCC(=O)O)nc3c2)=NO1 (stereo not drawn) [Example 229]	≤ 10 nM

Compound	Ki
CC1(c2cnc3ccccc3n2)CC(c2ccc3c(=O)n(-c4ccc(F)cc4)c(CCCCC(=O)O)nc3c2)=NO1 (stereo not drawn) [Example 230]	10 to 50 nM
C[C@@]1(C(=O)Nc2ccc(F)cc2O)CC(c2ccc3c(=O)n(-c4ccc(F)cc4)c(CCCCC(=O)O)nc3c2)=NO1 [Example 231]	≤ 10 nM
C[C@@]1(C(=O)NCc2ccccc2)CC(c2ccc3c(=O)n(-c4ccc(F)cc4)c(CCCCC(=O)O)nc3c2)=NO1 [Example 234]	10 to 50 nM
C[C@@]1(c2cccc(Br)c2)CC(c2ccc3c(=O)n(-c4ccc(F)cc4)c(CCCCC(=O)O)nc3c2)=NO1 [Example 235]	≤ 10 nM
C[C@]1(c2cccc(Br)c2)CC(c2ccc3c(=O)n(-c4ccc(F)cc4)c(CCCCC(=O)O)nc3c2)=NO1 [Example 236]	10 to 50 nM
C[C@@]1(C(=O)NCc2ccc(C#N)cc2)CC(c2ccc3c(=O)n(-c4ccc(F)cc4)c(CCCCC(=O)O)nc3c2)=NO1 [Example 237]	10 to 50 nM
C[C@@]1(C(=O)N2Cc3ccccc3C2)CC(c2ccc3c(=O)n(-c4ccc(F)cc4)c(CCCCC(=O)O)nc3c2)=NO1 [Example 238]	10 to 50 nM
C[C@@]1(C(=O)N2CC[C@H](c3ccccc3)C2)CC(c2ccc3c(=O)n(-c4ccc(F)cc4)c(CCCCC(=O)O)nc3c2)=NO1 [Example 239]	10 to 50 nM
N#Cc1ccccc1C1CC(c2ccc3c(=O)n(-c4ccc(F)cc4)c(CCCCC(=O)O)nc3c2)=NO1 (stereo not drawn) [Example 251]	≤ 10 nM
CC1(c2ccncc2)CC(c2ccc3c(=O)n(-c4ccc(F)cc4)c(CCCCC(=O)O)nc3c2)=NO1 (stereo not drawn) [Example 252]	≤ 10 nM
CC1(c2cccnc2)CC(c2ccc3c(=O)n(-c4ccc(F)cc4)c(CCCCC(=O)O)nc3c2)=NO1 (stereo not drawn) [Example 253]	≤ 10 nM
CCCC1(c2ccccc2)CC(c2ccc3c(=O)n(-c4ccc(F)cc4)c(CCCCC(=O)O)nc3c2)=NO1 (stereo not drawn) [Example 254]	≤ 10 nM
CCCCC1(c2ccccc2)CC(c2ccc3c(=O)n(-c4ccc(F)cc4)c(CCCCC(=O)O)nc3c2)=NO1 (stereo not drawn) [Example 255]	≤ 10 nM
CC[C@@](O)(c1ccc(F)cc1)c1cc(-c2ccc3c(=O)n(-c4ccc(F)cc4)c(CCCCC(=O)O)nc3c2)no1 [Example 256]	≤ 10 nM
CC[C@](O)(c1ccc(F)cc1)c1cc(-c2ccc3c(=O)n(-c4ccc(F)cc4)c(CCCCC(=O)O)nc3c2)no1 [Example 257]	≤ 10 nM
CC(c1ccc(F)cc1)C1(C)CC(c2ccc3c(=O)n(-c4ccc(F)cc4)c(CCCCC(=O)O)nc3c2)=NO1 (stereo not drawn) [Example 262]	≤ 10 nM
C[C@@H](O)c1cc(-c2ccc3c(=O)n(-c4ccc(F)cc4)c(CCCCC(=O)O)nc3c2)no1 [Example 265]	10 to 50 nM
C[C@@H](OCc1ccccc1)c1cc(-c2ccc3c(=O)n(-c4ccc(F)cc4)c(CCCCC(=O)O)nc3c2)no1 [Example 267]	10 to 50 nM
O=C(O)CCCCc1nc2cc(-c3cc(COCc4cc(F)cc(F)c4)on3)ccc2c(=O)n1-c1ccc(F)cc1 [Example 269]	≤ 10 nM
O=C(O)CCCCc1nc2cc(-c3cc(COCc4ccc(F)c(F)c4)on3)ccc2c(=O)n1-c1ccc(F)cc1 [Example 270]	≤ 10 nM
O=C(O)CCCCc1nc2cc(-c3cc(COCc4cc(F)cc(Cl)c4)on3)ccc2c(=O)n1-c1ccc(F)cc1 [Example 271]	≤ 10 nM

Second part, the compound after the results:

Ki	Compound
≤ 10 nM	COc1ccc(Cc2nc(-c3ccc4c(=O)n(-c5ccc(F)cc5)c(CCCCC(=O)O)nc4c3)no2)cc1 [Example 240]
≤ 10 nM	O=C(O)CCCCc1nc2cc(-c3noc(CCc4ccc(F)cc4)n3)ccc2c(=O)n1-c1ccc(F)cc1 [Example 241]
≤ 10 nM	O=C(O)CCCCc1nc2cc(-c3noc(C4Cc5ccccc5C4)n3)ccc2c(=O)n1-c1ccc(F)cc1 [Example 242]
10 to 50 nM	N#Cc1ccc(Cc2nc(-c3ccc4c(=O)n(-c5ccc(F)cc5)c(CCCCC(=O)O)nc4c3)no2)cc1 [Example 243]
≤ 10 nM	O=C(O)CCCCc1nc2cc(-c3noc(C4CCCc5ccccc54)n3)ccc2c(=O)n1-c1ccc(F)cc1 (stereo not drawn) [Example 244]
10 to 50 nM	O=C(O)CCCCc1nc2cc(-c3noc(C4CCCc5ccccc54)n3)ccc2c(=O)n1-c1ccc(F)cc1 (stereo not drawn) [Example 245]
≤ 10 nM	O=C(O)CCCCc1nc2cc(-c3noc(C4CCc5ccccc5C4)n3)ccc2c(=O)n1-c1ccc(F)cc1 (stereo not drawn) [Example 246]
10 to 50 nM	O=C(O)CCCCc1nc2cc(-c3noc(C4CCc5ccccc5C4)n3)ccc2c(=O)n1-c1ccc(F)cc1 (stereo not drawn) [Example 247]
10 to 50 nM	O=C(O)CCCCc1nc2cc(-c3noc(-c4nc5ccc(F)cc5o4)n3)ccc2c(=O)n1-c1ccc(F)cc1 [Example 248]
10 to 50 nM	CC(c1ccc(F)cc1)c1nc(-c2ccc3c(=O)n(-c4ccc(F)cc4)c(CCCCC(=O)O)nc3c2)no1 (stereo not drawn) [Example 249]
≤ 10 nM	C=C(c1ccc(F)cc1)c1cc(-c2ccc3c(=O)n(-c4ccc(F)cc4)c(CCCCC(=O)O)nc3c2)no1 [Example 250]
10 to 50 nM	C[C@@](O)(c1ccc(F)cc1)c1cc(-c2ccc3c(=O)n(-c4ccc(F)cc4)c(CCCCC(=O)O)nc3c2)no1 [Example 258]
10 to 50 nM	C[C@](O)(c1ccc(F)cc1)c1cc(-c2ccc3c(=O)n(-c4ccc(F)cc4)c(CCCCC(=O)O)nc3c2)no1 [Example 259]
≤ 10 nM	CC(c1ccc(F)cc1)c1cc(-c2ccc3c(=O)n(-c4ccc(F)cc4)c(CCCCC(=O)O)nc3c2)no1 (stereo not drawn) [Example 260]
≤ 10 nM	CCC(c1ccc(F)cc1)c1cc(-c2ccc3c(=O)n(-c4ccc(F)cc4)c(CCCCC(=O)O)nc3c2)no1 (stereo not drawn) [Example 261]
≤ 10 nM	C[C@H](c1ccc(F)cc1)c1cc(-c2ccc3c(=O)n(-c4ccc(F)cc4)c(CCCCC(=O)O)nc3c2)no1 [Example 263]
≤ 10 nM	C[C@@H](c1ccc(F)cc1)c1cc(-c2ccc3c(=O)n(-c4ccc(F)cc4)c(CCCCC(=O)O)nc3c2)no1 [Example 264]
≤ 10 nM	C[C@H](Oc1ccc(F)cc1)c1cc(-c2ccc3c(=O)n(-c4ccc(F)cc4)c(CCCCC(=O)O)nc3c2)no1 [Example 268]
